Experimental data reported in US20110275138A1, “KETOSE 3-EPIMERASE, ITS PREPARATION AND USES” (KABUSHIKI KAISHA HAYASHIBARA SEIBUTSU KAGAKU KENKYUJO, priority 2005, published 2011).
Where two headings read alike, the source gives them in different places. Marks after values point to notes of the source that are not given here.

Assays:
[1] = test system: ketose 3-epimerase; assay type: biochemical, Rhizobium leguminosarum ATCC14480
[2] = test system: ketose 3-epimerase; assay: Substrate specificity of ketose 3-epimerase (epimer content by HPLC); assay type: biochemical, Rhizobium leguminosarum ATCC14480; conditions: for Epimer content in the reaction products: 1% (w/v) substrate, pH 8.0, 1 mM MnCl2, 45° C., 17 hours
Procedure: By using the purified preparation of the ketose 3-epimerase, obtained by the method in Experiment 2, the substrate specificity of the enzyme was investigated using various D- or L-ketohexoses and D- or L-ketopentoses as substrates. Substrate solutions were prepared by dissolving D-fructose, D-psicose, D-tagatose, D-sorbose, D-xylulose, D-ribulose, L-fructose, L-psicose, L-tagatose, L-sorbose, L-xylulose, or L-ribulose into 20 mM Tris-HCl buffer (pH 8.0) containing 1 mM MnCl2 to give a final concentration of 1% (w/v), respectively. Then, each substrate solution was further admixed with 2 units/g-substrate or 20 units/g-substrate, on a dry solid basis, as D-psicose 3-epimerase activity of the purified preparation of the ketose 3-epimerase, obtained by the method in Experiment 2; and followed by the enzyme reaction at 45° C. for 17 hours. After stopping the reaction by keeping the reaction mixture at 100° C. for 10 min, the content of epimer formed from each substrate was measured using high performance liquid chromatography (hereinafter, abbreviated as “HPLC”). HPLC was carried out under the following conditions: • Column: MCI GEL CK08EC, commercialized by Mitsubishi Chemical Corporation, Tokyo, Japan; • Eluent: water; • Column temperature: 75° C. • Flow rate: 0.6 ml/min • Detection: RID-10A, a differential refractometer commercialized by Shimadzu Corporation, Kyoto, Japan;

[3] = Optimum pH and optimum temperature of the enzyme; assay type: biochemical; conditions: for Optimum temperature: pH 8.0, 30 min
Procedure: (§1) The activity of the ketose 3 -epimerase of the present invention can be assayed by measuring the amount of D-fructose formed from D-psicose as a substrate. Specifically, the activity of the enzyme can be assayed as follows: A substrate solution is prepared by dissolving D-psicose in 20 mM Tris-HCl buffer (pH 8.0) containing 1 mM MnCl2 to give a final concentration of 1% (w/v). Two milliliters of the substrate solution is admixed with 0.5 ml of the enzyme solution, and the mixture solution is incubated at 45° C. for 30 min. The reaction is stopped by keeping the reaction mixture in boiling water bath for 5 min. Successively, 1 ml of the reaction mixture is admixed with 1 ml of deionized water and 1 ml NADP solution, prepared by dissolving 2.37 g of NADP, 5.93 g of ATP, and 1 g of MgSO4 7H2O into 500 ml of 0.3 M triethanolamine-HCl buffer (pH 7.6). While, Enzyme solution A and B, described below, were respectively diluted 4-fold with 0.3 M triethanolamine-HCl buffer (pH 7.6) and then both solutions were mixed in equal amount to make into a mixed enzyme solution. Then, 40 ml of the mixed enzyme solution was admixed with the mixture prepared above. After keeping the resulting mixture at room temperature for 30 min, absorbance of the mixture at 340 nm was measured for determining the amount of D-fructose formed by the reaction. […]
According to the methods described in Experiment 2, the soluble fraction of cell homogenate, obtained by the method in Experiment 5, was partially purified by salting out, dialysis and successive column chromatographies on “SEPABEADS” gel and “BUTYL-TOYOPEARL” gel, and the partially purified enzyme preparation was analyzed according to the methods in Experiment 3. […]

[4] = Ketose 3-epimerase activity assay: D-fructose formed from D-psicose; assay type: biochemical; conditions: D-psicose 3-epimerase activity, per purification step
Procedure: as §1, with “While, Enzyme solution A and B, described below, were respectively diluted 4-fold with 0.3 M triethanolamine-HCl buffer (pH 7.6) and then both solutions were mixed in equal amount to make into a mixed enzyme solution. Then, 40 ml of the mixed enzyme solution was admixed with the mixture prepared above.” left out
The following experiments explain the present invention in detail. In the following experiments, D-psicose 3-epimerase activity, converting D-psicose into D-fructose, was assayed according to the aforementioned assay method and expressed as ketose 3-epimerase activity.

[5] = 1 mM metal salt, substrate solution without 1 mM MnCl2, None = 100
[6] = 1 mM, in comparison with the case without metal ions
[7] = 1 mM metal salt, substrate solution without 1 mM MnCl2, None = 100, D-fructose determined by HPLC

| Molecule | Relative activity [1, 5] [%] | Epimer content in the reaction products ([2]; enzyme 2 units/g-substrate) [%] | Epimer content in the reaction products ([2]; enzyme 20 units/g-substrate) [%] | Effect on the ketose 3-epimerase activity (in words) [1, 6] | further results |
| --- | --- | --- | --- | --- | --- |
| [Ba+2].[Cl-].[Cl-] [BaCl2] | 96 |  |  |  |  |
| O=C(CO)[C@@H](O)[C@@H](O)[C@@H](O)CO [L-Psicose, L-psicose] |  | 1.6 | 11.3 |  |  |
| [Cl-].[Cl-].[Sr+2] [SrCl2] | 103 |  |  | not activated |  |
| O=C(CO)[C@@H](O)[C@H](O)CO [D-Xylulose, D-xylulose] |  | 2.3 | 19.6 |  | Action of the ketose 3-epimerase on the substrate (in words) [2]: efficiently catalyzed |
| O=C(CO)[C@@H](O)[C@H](O)[C@H](O)CO [D-Fructose, D-fructose] |  | 17.7 | 25.8 |  | Action of the ketose 3-epimerase on the substrate (in words) [2]: most efficiently catalyzes; Epimer content in the reaction products ([2]; enzyme 2 units/g-substrate, listed as D-fructose): about 18% |
| O=C(CO)[C@H](O)[C@H](O)[C@@H](O)CO [L-Tagatose, L-tagatose] |  | 3.2 | 26.7 |  |  |
| O=C(CO)[C@@H](O)[C@@H](O)CO [L-Ribulose, L-ribulose] |  | 19.2 | 58.4 |  | Action of the ketose 3-epimerase on the substrate (in words) [2]: efficiently catalyzed |
| O=C(CO)[C@H](O)[C@H](O)[C@H](O)CO [D-Psicose, D-psicose] |  | 39.4 | 74.1 |  | Action of the ketose 3-epimerase on the substrate (in words) [2]: most efficiently catalyzes; Epimer content in the reaction products ([2]; enzyme 2 units/g-substrate, listed as D-psicose): about 39% |
| [Cl][Al]([Cl])[Cl] [AlCl3] | 86 |  |  |  |  |
| [Cl][Ni][Cl] [NiCl2] | 64 |  |  | slightly inhibited |  |
| O=C(CO)[C@H](O)[C@H](O)CO [D-Ribulose, D-ribulose] |  | 17.1 | 43.4 |  | Action of the ketose 3-epimerase on the substrate (in words) [2]: efficiently catalyzed |
| O=C(CO)[C@@H](O)[C@@H](O)[C@H](O)CO [D-Tagatose, D-tagatose] |  | 0.6 | 5.3 |  | Action of the ketose 3-epimerase on the substrate (in words) [2]: slightly catalyzed |
| [Cl-].[Cl-].[Co+2] [CoCl2] |  |  |  |  | Effect on the ketose 3-epimerase activity (in words) [1]: not activated; Relative activity [1]: 101% |
| [Cl][Fe]([Cl])[Cl] [FeCl3] |  |  |  |  | Relative activity [1, 7]: 64% |
| O=C(CO)[C@H](O)[C@@H](O)CO [L-Xylulose, L-xylulose] |  | 1.6 | 10.3 |  | Action of the ketose 3-epimerase on the substrate (in words) [2]: efficiently catalyzed |
| O=C(O)CN(CCN(CC(=O)O)CC(=O)O)CC(=O)O [EDTA] |  |  |  |  | Effect on the ketose 3-epimerase activity (in words) [1]: not inhibited; Relative activity [1]: 97% |
| [Cl][Mn][Cl] [MnCl2] | 283 |  |  | Activated | Relative activity ([1]; 1 mM metal salt, substrate solution without 1 mM MnCl2, None = 100, listed as Mn^2+): about 280% |
| [Cl-].[Cl-].[Mg+2] [MgCl2] | 141 |  |  | Activated | Relative activity ([1]; 1 mM metal salt, substrate solution without 1 mM MnCl2, None = 100, listed as Mg^2+): about 140% |
| O=C(CO)[C@@H](O)[C@H](O)[C@@H](O)CO [L-Sorbose, L-sorbose] |  | 0 | 6.2 |  |  |
| [Cl][Fe][Cl] [FeCl2] |  |  |  |  | Relative activity [1, 7]: 67% |
| [Cl][Hg][Cl] [HgCl2, mercury chloride] |  |  |  | remarkable inhibited | Relative activity [1, 7]: 35% |
| O=C(CO)[C@H](O)[C@@H](O)[C@@H](O)CO [L-Fructose, L-fructose] |  | 0 | 1.4 |  |  |
| [Cl][Pb][Cl] [PbCl2] | 69 |  |  | slightly inhibited |  |
| [Cl][Cu][Cl] [CuCl2] | 60 |  |  | slightly inhibited |  |
| [Ca+2].[Cl-].[Cl-] [CaCl2] | 89 |  |  |  |  |
| [Cl-].[Cl-].[Zn+2] [ZnCl2] | 13 |  |  | remarkable inhibited |  |
| [Cl][Sn][Cl] [SnCl2] | 114 |  |  | slightly activated |  |
| O=C(CO)[C@H](O)[C@@H](O)[C@H](O)CO [D-Sorbose, D-sorbose] |  | 0 | 0.1 |  | Action of the ketose 3-epimerase on the substrate (in words) [2]: slightly catalyzed |
| ketose 3-epimerase: purified ketose 3-epimerase from Rhizobium leguminosarum ATCC14480, 282 amino acid residues represented by SEQ ID NO: 2 (protein, listed as Rhizobium leguminosarum) MEGFGVHTSMWTMNWDRAGAEKAIAGAVHYKMDFIEIALLNAPAVDAKHTRALLEKNKLRAVCSLGLPEHAWASVRPDAAIEHLKVAIEKTAEMNAEALSGVIFGGIGERTGVPPTQGEYDNIAKVLDVAAKHARKHGIQLGVEAVNRYENHLINSAQQAVDMVERVGADNIFVHLDTYHMNIEEKGAANGILIARDHLKYIHLSESDRGTPGYGNIPWDAIYAALAAIGFKGGLAMESFINMPPEVAYGLAVWRPVARDMEEVMDKGLPFLRNKAEQYGLI |  |  |  |  | Optimum pH ([3]; 45° C., 30 min, in the presence of 1 mM Mn2+ ion): 9.0-9.5*; Optimum temperature ([3]; in the absence of 1 mM Mn2+ ion): 50 °C; Optimum temperature ([3]; in the presence of 1 mM Mn2+ ion): (65° C.)*; Specific activity of ketohexose 3-epimerase [4]: 41.6 units/mg-protein |
